In publication PMC3538728 (PLoS ONE, 2013):
Where “and” joins values, the source holds several entries; their conditions need not be identical. Equal values may be shown once. Read-outs that look alike come from different tables or passages of the source.

Target: T1, γ-secretase (Homo sapiens, UniProt P49768)
T1 construct: γ-Secretase is composed of four subunits: Aph1, Pen2, glycosylated nicastrin, and endo-proteolyzed presenilin as the catalytic core; endogenous in cells; host or cells: HeLa S3 (ATCC CCL-2.2)
Experiment: Aβ 1–40 secretion from HeLa cells in the presence of DAPT (sandwich ELISA), dose-response fits
Type: cell-based
Conditions: for EC50: read-out: Activation EC50; for IC50: read-out: Inhibition IC50; for Maximal Activity that can be achieved by transfection (Aβ 1-40 secreted): HeLa transfected with cDNAwtC99
From the text: HeLa cells have been transfected using Lipofectamine LTX™ reagent following the manufacturer instructions. The transfection protocol and concentration of pSG5-cDNAwtC99 plasmid have been optimized to achieve desired assay sensitivity, a gradual increase in the substrate expression level, and a smooth transition from biphasic to the standard dose-response curves (Figs. 2–3). Initially concentration of pSG5-cDNAwtC99 plasmid have been optimized by western blots using anti-flag αM2 monoclonal antibody as described in our previous study. The cells were transfected in 24-well plates. The day before transfection the cells were trypsinized and counted. About 0.85×10^5 cells were seeded per well in 0.5 ml of complete growth medium to achieve about 75% confluent cultures on the day of transfection. Before the transfection old medium was removed and replaced with fresh 0.5 ml of complete growth medium. For transfection 5X DNA concentration was diluted in 500 µl of Opti-MEM®I Reduced Serum Media and mixed with 0.7 µl of Lipofectamine LTX™ Reagent. The solution was gently mixed and incubated for 30 minutes at room temperature to form DNA- Lipofectamine LTX™ Reagent complexes. Following the 30 min incubation, 100 µl of the DNA- Lipofectamine LTX™ Reagent complexes was added directly to each well containing cells and mixed gently by rocking the plate back and forth. The cells were incubated at 37°C in a CO2 incubator for 18 hours.
Fresh medium was added 18 hours after the transfection (0.5 ml per well), to prepare the cells for incubation with DAPT [18], [51]. Different concentrations of DAPT were prepared in DMSO, and added to the cells so that the final DMSO concentration in the culture was 0.1% (v/v). DMSO vehicle represents 0 nM DAPT. The cells were incubated with DAPT at given concentrations for 15 hours.
The assay linear response is in the range from 6–125 pM of Aβ 1–40. The assays were performed by closely following the manufacturer instructions. […] Each well was filled with 50 µl of the antibody conjugate solution and 50 µl of sample. The Aβ 1–40 standards were supplied by the manufacturer and prepared in parallel with other samples. All of the prepared wells were wrapped in aluminum foil and incubated overnight at 4°C with gentle mixing. The next day each well was washed five times with 300 µl of wash solution. After each […] wash, the wash solution was poured out and the wells were dried by tapping the plates on an absorbing paper. Washed wells were filled with 100 µl of the enzyme conjugate solution, covered, and incubated for 30 min at room temperature with shaking. The washing procedure was repeated once again to remove excess of the enzyme-conjugate. Next 100 µl of the substrate solution was added in each well in dark, and kept for 30 minutes covered at room temperature. The reaction was quenched by adding 50 µl of stop solution to each well, and within 15 min the signal intensity was read by measuring absorption at 450 nm.
All experimental results were analyzed using MicroCal Origin 7.0 program, nonlinear regressions, and equations that represent specific mechanism. All results are reported as the best fit value ± standard error with two-sigma confidence intervals shown in square brackets (i.e. x±y [p, q]). Briefly, the standard error indicates random errors (i.e. precision) for each method, while the two sigma confidence intervals indicate the ability of given experimental setup to provide information about specific best-fit parameter. The random error for presented experiments is low, as indicated by a low scatter from the best fit values. The sharp confidence intervals can be obtained by taking a large number of independent data points that cover all segments that define the measured functions. […]

[1] = Aβ 1-40 secreted, untransfected HeLa cells, eqn. 1, six free fit parameters
[2] = Aβ 1-40 secretion, untransfected HeLa cells, eqn. 1, six free fit parameters
[3] = HeLa, 0 ng/mL pSG5-cDNAwtC99, eqn. 1
[4] = HeLa, 15 ng/mL pSG5-cDNAwtC99, eqn. 1
[5] = HeLa, 25 ng/mL pSG5-cDNAwtC99, eqn. 1
[6] = HeLa, 61 ng/mL pSG5-cDNAwtC99, eqn. 1
[7] = HeLa, 92 ng/mL pSG5-cDNAwtC99, eqn. 1

T1 sequence (Q9NZ42 whole entry, other chains not shown): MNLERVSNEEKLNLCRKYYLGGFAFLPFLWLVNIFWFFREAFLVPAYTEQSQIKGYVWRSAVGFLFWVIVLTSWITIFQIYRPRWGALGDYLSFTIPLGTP
T1 sequence (Q92542 34-709, other chains not shown, further chain): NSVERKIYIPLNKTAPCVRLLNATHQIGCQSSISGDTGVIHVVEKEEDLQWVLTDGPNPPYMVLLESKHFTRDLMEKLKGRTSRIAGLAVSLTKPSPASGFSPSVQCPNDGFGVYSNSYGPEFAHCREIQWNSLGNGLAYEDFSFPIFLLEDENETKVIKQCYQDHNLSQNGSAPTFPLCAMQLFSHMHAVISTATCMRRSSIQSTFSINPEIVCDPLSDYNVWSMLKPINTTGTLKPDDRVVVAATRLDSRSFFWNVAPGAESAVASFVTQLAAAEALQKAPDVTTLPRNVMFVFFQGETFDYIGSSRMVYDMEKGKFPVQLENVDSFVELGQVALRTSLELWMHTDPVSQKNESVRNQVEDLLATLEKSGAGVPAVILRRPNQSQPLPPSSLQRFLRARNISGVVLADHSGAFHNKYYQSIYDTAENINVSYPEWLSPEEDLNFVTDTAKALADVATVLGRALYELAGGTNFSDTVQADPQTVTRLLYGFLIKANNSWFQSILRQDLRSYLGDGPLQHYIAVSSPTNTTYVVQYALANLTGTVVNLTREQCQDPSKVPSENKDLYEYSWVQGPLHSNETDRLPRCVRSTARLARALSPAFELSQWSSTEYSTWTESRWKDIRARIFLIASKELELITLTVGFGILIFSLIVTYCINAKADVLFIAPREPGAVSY
T1 sequence (Q96BI3 whole entry, other chains not shown, further chain): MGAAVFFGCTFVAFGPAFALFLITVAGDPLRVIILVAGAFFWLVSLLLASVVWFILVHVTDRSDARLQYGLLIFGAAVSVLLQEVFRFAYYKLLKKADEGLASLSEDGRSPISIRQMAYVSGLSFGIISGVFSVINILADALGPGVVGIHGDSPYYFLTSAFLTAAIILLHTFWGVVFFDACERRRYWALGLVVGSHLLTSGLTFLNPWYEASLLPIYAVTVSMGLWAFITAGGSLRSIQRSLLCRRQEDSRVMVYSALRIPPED

C[C@H](NC(=O)Cc1cc(F)cc(F)c1)C(=O)N[C@H](C(=O)OC(C)(C)C)c1ccccc1 [DAPT, N-[N-(3,5-difluorophenacetyl)-L-alanyl]-S-phenylglycine t-butyl ester]
Endogenous activity as percentage of maximal activity achieved by transfection (33 nM DAPT): 40% and 39.7% | cDNAwtC99 required to reach maximal activity (33 nM DAPT): 192 ng/mL and 191.0 ng/mL | Endogenous activity as percentage of maximal activity achieved by transfection (100 nM DAPT): 72% and 72.5% | cDNAwtC99 required to reach maximal activity (100 nM DAPT): 92.7 ng/mL | Endogenous activity as percentage of maximal activity achieved by transfection (333 nM DAPT): 92.1% | cDNAwtC99 required to reach maximal activity (333 nM DAPT): 59.8 ng/mL | Endogenous activity as percentage of maximal activity achieved by transfection (500 nM DAPT): 89.3% | cDNAwtC99 required to reach maximal activity (500 nM DAPT): 39.2 ng/mL | Endogenous activity as percentage of maximal activity achieved by transfection (1000 nM DAPT): 96.2% | cDNAwtC99 required to reach maximal activity (1000 nM DAPT): 14.0 ng/mL | Initial Activity, IA (Aβ 1-40 secreted, untransfected HeLa cells, endogenous substrate, activity at inhibitor concentration zero, eqn. 1, six free fit parameters): 31 ± 4 pM per 10^6 cells | Maximal Activity (MA), calculated activation plateau [1]: 196 pM per 10^6 cells and 196 ± 80 pM per 10^6 cells | Maximal Inhibition, MI [1]: 0.5 ± -3.4 pM per 10^6 cells | EC50 [2]: 72 ± 20 nM | IC50 [2]: 472 ± 95 nM | Maximal Activity that can be achieved by transfection (Aβ 1-40 secreted) (33 nM DAPT): 204.5 pM per 10^6 cells | Maximal Activity that can be achieved by transfection (Aβ 1-40 secreted) (100 nM DAPT): 182 pM per 10^6 cells and 182.0 pM per 10^6 cells | Maximal Activity that can be achieved by transfection (Aβ 1-40 secreted) (333 nM DAPT): 140.0 pM per 10^6 cells | Maximal Activity that can be achieved by transfection (Aβ 1-40 secreted) (500 nM DAPT): 125.0 pM per 10^6 cells | Maximal Activity that can be achieved by transfection (Aβ 1-40 secreted) (1000 nM DAPT): 44.7 pM per 10^6 cells | Activation Hill coef. [3]: 1.04 ± 0.2 | Inhibition Hill's coef [3]: 2 ± 0.3 | Maximal Activity, MA [3]: 217 ± 110 pM per 10^6 cells | Maximal Inhibition, MI [3]: -1 ± 0.1 pM per 10^6 cells | Initial Activity, IA (HeLa, 0 ng/mL pSG5-cDNAwtC99, eqn. 1, activity at zero DAPT): 32 ± 3 pM per 10^6 cells | EC50 [3]: 89 ± 17 nM | IC50 [3]: 407 ± 34 nM | Activation Hill coef. [4]: 1.08 ± 0.2 | Inhibition Hill's coef [4]: 2.4 ± 0.3 | Maximal Activity, MA [4]: 172 ± 90 pM per 10^6 cells | Maximal Inhibition, MI [4]: 0.33 ± 0.7 pM per 10^6 cells | Initial Activity, IA (HeLa, 15 ng/mL pSG5-cDNAwtC99, eqn. 1, activity at zero DAPT): 41 ± 3 pM per 10^6 cells | EC50 [4]: 71 ± 21 nM | IC50 [4]: 588 ± 35 nM | Activation Hill coef. [5]: 1.0 ± 0.1 | Inhibition Hill's coef [5]: 2.2 ± 0.4 | Maximal Activity, MA [5]: 205 ± 80 pM per 10^6 cells | Maximal Inhibition, MI [5]: -0.2 ± 0.1 pM per 10^6 cells | Initial Activity, IA (HeLa, 25 ng/mL pSG5-cDNAwtC99, eqn. 1, activity at zero DAPT): 51 ± 5 pM per 10^6 cells | EC50 [5]: 110 ± 34 nM | IC50 [5]: 524 ± 71 nM | Activation Hill coef. [6]: 1.13 ± 0.6 | Inhibition Hill's coef [6]: 2.3 ± 0.5 | Maximal Activity, MA [6]: 180 ± 145 pM per 10^6 cells | Maximal Inhibition, MI [6]: 1.2 ± 0.2 pM per 10^6 cells | Initial Activity, IA (HeLa, 61 ng/mL pSG5-cDNAwtC99, eqn. 1, activity at zero DAPT): 91 ± 6 pM per 10^6 cells | EC50 [6]: 107 ± 36 nM | IC50 [6]: 489 ± 62 nM | Activation Hill coef. [7]: 0.92 ± 0.3 | Inhibition Hill's coef [7]: 1.7 ± 0.6 | Maximal Activity, MA [7]: 170 ± 95 pM per 10^6 cells
